Read-outs that look alike come from different tables or passages of the source.
Columns and labels:
Assay type in all cases: cell-based
[1] = target: protein kinases (human kinome) (Homo sapiens, UniProt O14874); details: BCKDK (O14874)
[2] = target: T1, protein kinases (human kinome) (Homo sapiens, UniProt O00444)
T1 sequence (O00444 1-970): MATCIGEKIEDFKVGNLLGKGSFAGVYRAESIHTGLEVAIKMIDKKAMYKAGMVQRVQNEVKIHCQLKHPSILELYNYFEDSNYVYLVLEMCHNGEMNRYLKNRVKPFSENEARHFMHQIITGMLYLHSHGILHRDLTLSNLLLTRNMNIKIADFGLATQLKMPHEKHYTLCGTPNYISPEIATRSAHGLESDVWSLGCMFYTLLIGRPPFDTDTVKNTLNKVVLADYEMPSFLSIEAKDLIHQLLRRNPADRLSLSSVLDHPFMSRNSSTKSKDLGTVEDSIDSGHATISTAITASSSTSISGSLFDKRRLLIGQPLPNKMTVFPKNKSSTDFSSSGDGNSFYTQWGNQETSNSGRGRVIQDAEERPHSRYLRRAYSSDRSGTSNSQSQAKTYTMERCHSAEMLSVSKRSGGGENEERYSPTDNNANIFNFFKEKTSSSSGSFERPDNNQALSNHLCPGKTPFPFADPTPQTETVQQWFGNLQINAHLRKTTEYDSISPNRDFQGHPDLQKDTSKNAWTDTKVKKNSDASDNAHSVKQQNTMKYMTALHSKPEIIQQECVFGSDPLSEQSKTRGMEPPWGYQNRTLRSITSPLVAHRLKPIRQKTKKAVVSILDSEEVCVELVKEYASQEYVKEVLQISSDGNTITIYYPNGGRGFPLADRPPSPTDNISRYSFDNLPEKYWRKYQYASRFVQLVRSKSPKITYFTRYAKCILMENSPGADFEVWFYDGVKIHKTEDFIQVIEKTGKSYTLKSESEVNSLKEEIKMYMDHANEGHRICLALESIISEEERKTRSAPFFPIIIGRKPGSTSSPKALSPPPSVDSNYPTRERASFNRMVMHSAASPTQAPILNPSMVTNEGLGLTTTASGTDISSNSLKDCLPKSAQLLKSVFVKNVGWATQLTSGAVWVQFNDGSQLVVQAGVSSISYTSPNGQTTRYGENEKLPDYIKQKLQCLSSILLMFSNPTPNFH

[3] = target: T2, protein kinases (human kinome) (Homo sapiens, UniProt Q9UBE8)
T2 sequence (Q9UBE8 1-527): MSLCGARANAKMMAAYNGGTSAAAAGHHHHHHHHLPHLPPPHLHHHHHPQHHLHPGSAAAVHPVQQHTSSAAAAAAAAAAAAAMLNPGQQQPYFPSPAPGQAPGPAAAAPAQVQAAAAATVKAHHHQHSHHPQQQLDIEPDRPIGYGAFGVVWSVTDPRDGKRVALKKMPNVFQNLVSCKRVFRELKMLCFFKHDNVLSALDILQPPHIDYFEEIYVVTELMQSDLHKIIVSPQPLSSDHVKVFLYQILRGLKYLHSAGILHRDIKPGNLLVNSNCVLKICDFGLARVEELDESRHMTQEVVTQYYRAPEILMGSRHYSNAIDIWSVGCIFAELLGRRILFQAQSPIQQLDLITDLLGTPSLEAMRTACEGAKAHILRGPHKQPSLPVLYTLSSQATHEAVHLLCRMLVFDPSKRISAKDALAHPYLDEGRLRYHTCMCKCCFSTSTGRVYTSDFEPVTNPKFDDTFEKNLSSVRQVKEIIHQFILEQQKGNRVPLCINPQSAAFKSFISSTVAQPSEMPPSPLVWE

[4] = target: T3, protein kinases (human kinome) (Homo sapiens, UniProt Q9H8X2); details: IPPK (Q9H8X2)
T3 sequence (Q9H8X2 1-491): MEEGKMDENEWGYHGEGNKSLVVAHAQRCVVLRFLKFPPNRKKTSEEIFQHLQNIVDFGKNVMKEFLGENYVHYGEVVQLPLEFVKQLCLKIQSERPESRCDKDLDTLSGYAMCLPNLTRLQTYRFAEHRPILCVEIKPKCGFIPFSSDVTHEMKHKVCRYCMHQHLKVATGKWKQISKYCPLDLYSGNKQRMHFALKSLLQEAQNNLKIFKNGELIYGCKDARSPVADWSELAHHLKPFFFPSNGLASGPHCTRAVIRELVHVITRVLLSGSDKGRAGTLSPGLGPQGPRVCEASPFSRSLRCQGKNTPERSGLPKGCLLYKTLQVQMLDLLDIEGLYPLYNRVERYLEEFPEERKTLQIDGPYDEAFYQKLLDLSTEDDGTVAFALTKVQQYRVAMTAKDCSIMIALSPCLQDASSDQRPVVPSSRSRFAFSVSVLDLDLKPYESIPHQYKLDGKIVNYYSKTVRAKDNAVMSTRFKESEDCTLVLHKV

[5] = target: protein kinases (human kinome) (Homo sapiens, UniProt P49674); details: CSNK1E P49674
Sequence of protein kinases (human kinome) (Homo sapiens, UniProt P49674) (P49674 whole entry): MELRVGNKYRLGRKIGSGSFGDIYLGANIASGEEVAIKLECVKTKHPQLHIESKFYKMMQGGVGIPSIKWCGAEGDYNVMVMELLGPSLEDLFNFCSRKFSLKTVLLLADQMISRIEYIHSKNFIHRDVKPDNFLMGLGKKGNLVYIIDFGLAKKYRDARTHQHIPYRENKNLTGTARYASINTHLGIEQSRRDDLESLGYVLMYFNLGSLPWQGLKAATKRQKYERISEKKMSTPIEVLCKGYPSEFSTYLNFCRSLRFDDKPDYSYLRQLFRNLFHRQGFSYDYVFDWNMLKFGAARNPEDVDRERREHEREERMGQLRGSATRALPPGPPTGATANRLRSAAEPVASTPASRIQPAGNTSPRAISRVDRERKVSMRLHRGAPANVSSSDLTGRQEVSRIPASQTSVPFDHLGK

[6] = experiment wp084, direction down
[7] = experiment wp147, 4 uM, direction down
[8] = NLK (Q9UBE8), experiment wp137, direction down
[9] = Accession O00444, experiment wp131, direction down
[10] = Accession O00444, experiment wp137, direction down
[11] = PLK4 (O00444), experiment wp137

Work on `CC(=O)c1c(C)c2cnc(Nc3ccc(N4CCN(CCOCCOCCOCCNC(=O)COc5cccc6c5C(=O)N(C5CCC(=O)NC5=O)C6=O)CC4)cn3)nc2n(C2CCCC2)c1=O` (stereo not drawn) [BSJ.03.123] yielded a logFC ([1]; experiment wp084) of −0.4553 and a logFC [1, 6] of −0.4553.
In the case of `CN(C)C(=O)c1cc2cnc(Nc3ccc(N4CCN(CCCCNC(=O)COc5cccc6c5C(=O)N(C5CCC(=O)NC5=O)C6=O)CC4)cn3)nc2n1C1CCCC1` (stereo not drawn) [BSJ.04.132], the logFC ([1]; experiment wp084) is reported as −0.5188 and the logFC [1, 6] is reported as −0.5188.
With `CS(=O)(=O)Nc1cccc(-c2csc3cnc(Nc4ccc(N5CCN(CCCCCOc6cccc7c6C(=O)N(C6CCC(=O)NC6=O)C7=O)CC5)cc4)nc23)c1` (stereo not drawn) [DB0614, N-(3-(2-((4-(4-(5-((2-(2,6-Dioxopiperidin-3-yl)-1,3-dioxoisoindolin-4-yl)oxy)pentyl)piperazin-1-yl)phenyl)amino)thieno[3,2-d]pyrimidin-7-yl)phenyl)methanesulfonamide] the “logFC PLK4” value ([2]; Accession O00444, experiment wp117, direction down) was −0.5414 and the “logFC PLK4 (O00444)” value ([2]; experiment wp117) was −0.5414.
Molecule `Cc1ccc(NC(=O)c2cccc(C(F)(F)F)c2)cc1N1Cc2cnc(Nc3ccc(N4CCN(Cc5cn(CCCCCOc6cccc7c6C(=O)N(C6CCC(=O)NC6=O)C7=O)nn5)CC4)nc3)nc2N(C)C1=O` (stereo not drawn) [DB0646, N-(3-(7-((6-(4-((1-(5-((2-(2,6-Dioxopiperidin-3-yl)-1,3-dioxoisoindolin-4-yl)oxy)pentyl)-1H-1,2,3-triazol-4-yl)methyl)piperazin-1-v)pyridin-3-yl)amino)-1-methyl-2-oxo-1,4-dihydropyrimido[4,5-d]pyrimidin-3(2H)-yl)-4-methylphenyl)-3-(trifluoromethyl)benzamide] has a logFC ([3]; NLK (Q9UBE8), experiment wp117, direction down) of −0.501, a logFC ([3]; NLK (Q9UBE8), experiment wp160, 8 hr, direction down) of −0.5569 and a logFC ([3]; NLK Q9UBE8, experiment wp117) of −0.501. It also gave a logFC ([3]; NLK Q9UBE8, experiment wp160, 8 hr) of −0.5569.
`Cc1ccc(NC(=O)c2cccc(C(F)(F)F)c2)cc1N1Cc2cnc(Nc3ccc(N4CCN(CCCCC(=O)N[C@H](C(=O)N5C[C@H](O)C[C@H]5C(=O)N[C@@H](C)c5ccc(-c6scnc6C)cc5)C(C)(C)C)CC4)nc3)nc2N(C)C1=O` [DB1113] gave a logFC ([3]; NLK (Q9UBE8), experiment wp168, direction down) of −0.8556 and a logFC ([3]; NLK Q9UBE8, experiment wp168) of −0.8556.
With `CC(C)(C)c1nc(-c2cccc(NS(=O)(=O)c3c(F)cccc3F)c2F)c(-c2ccnc(NCCOCCNC(=O)CCOCCOCCNc3cccc4c3C(=O)N(C3CCC(=O)NC3=O)C4=O)n2)s1` (stereo not drawn) [DD.03.106] the logFC ([1]; experiment wp137) was −0.3275, the logFC ([1]; experiment wp137, direction down) was −0.3275 and the logFC ([1]; experiment wp147, 4 uM) was −0.5831. It also gave a logFC [1, 7] of −0.5831 and a logFC [3, 8] of −0.441.
In the case of `CC(C)(C)c1nc(-c2cccc(NS(=O)(=O)c3c(F)cccc3F)c2F)c(-c2ccnc(NCCOCCNC(=O)CCOCCOCCNc3cccc4c3CN(C3CCC(=O)NC3=O)C4=O)n2)s1` (stereo not drawn) [DD.03.107], the logFC ([1]; experiment wp147, 4 uM) is reported as −1.113 and the logFC [1, 7] is reported as −1.113.
`Cc1ncsc1-c1ccc([C@H](C)NC(=O)[C@@H]2C[C@@H](O)CN2C(=O)[C@@H](NC(=O)CCOCCOCCN2CCN(c3ccc(Nc4ncc(Cl)c(Nc5ccccc5S(=O)(=O)C(C)C)n4)cc3)CC2)C(C)(C)C)cc1` [FMF.06.098.1] was tested, and the “logFC PLK4” value [2, 9] was −0.7435, the “logFC PLK4 (O00444)” value ([2]; experiment wp131) was −0.7435 and the logFC ([4]; experiment wp114) was −0.5773.
In the case of `Nc1ncnc2c1c(-c1ccc(Oc3ccccc3)cc1)nn2[C@H]1CC[C@H](N2CCN(CCOCCNC(=O)CNc3cccc4c3C(=O)N(C3CCC(=O)NC3=O)C4=O)CC2)CC1` (stereo partly drawn) [SB1.G.181], the logFC ([5]; experiment wp071) is reported as −1.189 and the “logFC CSNK1E” value ([5]; experiment wp071) is reported as −1.189.
Work on `Cn1c(=O)c(-c2c(Cl)cccc2Cl)cc2cnc(Nc3ccc(OCCNC(=O)CCCCCCNC(=O)COc4cccc5c4C(=O)N(C4CCC(=O)NC4=O)C5=O)cc3)nc21` (stereo not drawn) [SB1.G.192.1] yielded a logFC ([3]; NLK (Q9UBE8), experiment wp071, direction down) of −0.5578, a logFC ([3]; NLK (Q9UBE8), experiment wp081, direction down) of −0.4869 and a logFC ([3]; NLK (Q9UBE8), experiment wp131, direction down) of −0.5634. It also gave a logFC ([3]; NLK Q9UBE8, experiment wp071) of −0.5578, a logFC ([3]; NLK Q9UBE8, experiment wp081) of −0.4869 and a logFC ([3]; NLK Q9UBE8, experiment wp131) of −0.5634.
For `CC(C)S(=O)(=O)c1ccccc1Nc1nc(Nc2ccc(N3CCN(CCOCCOCCNC(=O)CNc4cccc5c4C(=O)N(C4CCC(=O)NC4=O)C5=O)CC3)cc2)ncc1Cl` (stereo not drawn) [TL12.186], the logFC ([5]; experiment wp137) was −0.4411, the “logFC CSNK1E” value ([5]; experiment wp137) was −0.4411 and the “logFC PLK4” value [2, 9] was −1.559. The “logFC PLK4” value [2, 10] was −1.159, the “logFC PLK4” value [2, 11] was −1.159 and the “logFC PLK4 (O00444)” value ([2]; experiment wp131) was −1.559. The logFC [3, 8] was −0.5154, the logFC ([3]; NLK Q9UBE8, experiment wp137) was −0.5154 and the logFC ([4]; experiment wp131) was −0.6311.
With `CC(C)S(=O)(=O)c1ccccc1Nc1nc(Nc2ccc(N3CCN(CCOCCOCCC(=O)NCCNc4cccc5c4CN(C4CCC(=O)NC4=O)C5=O)CC3)cc2)ncc1Cl` (stereo not drawn) [TL13.97] the “logFC PLK4” value [2, 10] was −1.049 and the “logFC PLK4” value [2, 11] was −1.049.
For `Nc1ncc(-c2ccc(S(=O)(=O)N(CCCNC(=O)CCOCCOCCOCCOCCOCCNc3cccc4c3C(=O)N(C3CCC(=O)NC3=O)C4=O)C3CC3)cc2)cc1-c1ccc2c(c1)CCNC2=O` (stereo not drawn) [WH.10417.099], the logFC ([5]; experiment wp056) was −1.591, the “logFC CSNK1E” value ([5]; experiment wp056) was −1.591 and the logFC ([5]; experiment wp103) was −1.306. The “logFC CSNK1E” value ([5]; experiment wp103) was −1.306, the logFC ([5]; experiment wp105) was −0.8305 and the “logFC CSNK1E” value ([5]; experiment wp105) was −0.8305. The logFC ([5]; experiment wp107) was −2.192, the “logFC CSNK1E” value ([5]; experiment wp107) was −2.192 and the logFC ([5]; experiment wp172) was −1.164. The “logFC CSNK1E” value ([5]; experiment wp172) was −1.164.

From patent US20240269139A1, “COMPOUNDS FOR TARGETED PROTEIN DEGRADATION OF KINASES” (DANA-FARBER CANCER INSTITUTE, INC., priority 2020, published 2024)
